# Test results taken from paper PMC11357256, “Selectivity Screening and Structure–Cytotoxic Activity Observations of Selected Oleanolic Acid (OA)-Type Saponins from the Amaranthaceae Family on a Wiade Panel of Human Cancer Cell Lines” (Molecules, 2024).
# How the values were obtained:
# FTC133 = assay: MTT cell viability assay, FTC133 follicular thyroid carcinoma cells; type: cell-based, human; conditions: for IC50: Homo sapiens, FTC-133
# Source text: (§1) Cell lines used in the study were grouped as follows: skin panel (melanomas: HTB140, derived from metastatic site: lymph node, ATCC Hs 294 T; malignant A375, ATCC CRL-1619; stage I primary WM793, RRID:CVCL 8787; skin keratinocytes HaCaT); prostate panel (prostate carcinomas: Du145, derived from metastatic site: brain, ATCC HTB-81; grade IV PC3, derived from metastatic site: bone, ATCC CRL-1435, LNCaP, derived from the metastatic site: lymph node, ATCC CRL-1740; prostate epithelial, PNT2, ECACC 95012613); gastrointestinal panel (colorectal adenocarcinomas: Caco2, ATCC HTB-37, HT29, ATCC HTB-38, DLD-1, ATCC CCL-221, HCT116, ATCC CCL-247, and colon epithelial cells CCD 841 CoN, ATCC CRL-1790; hepatocellular carcinoma HepG2, ATCC HB-8065); thyroid panel (follicular thyroid carcinoma FTC133, ECACC 9406090, undifferentiated thyroid carcinoma 8505C, ECACC 94090184, papillary thyroid carcinoma TPC-1, SCC147, normal thyroid follicular epithelial Nthy-ori 3–1, ECACC 90011609); and breast panel (ER-positive breast adenocarcinoma MCF7, ATCC HTB-22; ER-negative breast adenocarcinoma MDA-MB-231, ATCC HTB-26; breast epithelial MCF10A, ATCC CRL-10317). Cells were grown under standard conditions (37 °C, 5% CO2, relative humidity), and culture media (DMEM/F12 for PNT2, WM 793, HT29, PC3, FTC133, 8505 C, MDA-MB-231, TPC-1; DMEM Low Glucose for DU145; DMEM High Glucose for HTB140, A375, HaCaT; MEM with NEAA for Caco2 and MCF7; RPMI1640 with sodium pyruvate for LNCaP; DMEM/F12 with 20 ng/mL epidermal growth factor (EGF), 10 μg/mL insulin, 0.5 μg/mL hydrocortisone, 100 ng/mL cholera toxin) for MCF10A) supplemented with 10% fetal bovine serum (FBS) or 5% donor horse serum for MCF10A, and 1% antibiotics solution (10,000 U penicillin and 10 mg streptomycin/mL) […], as previously described. All cell lines, culture media, and supplements were from Sigma-Aldrich (Germany).
# (§2) The cells were seeded in 96-well plates (1.5 × 10^4 cells/well). After 24 h, fresh medium was added, containing the tested compounds (0.5–100 μg/mL) and incubated for 24 or 48 h. Cell viability was determined by MTT assay, according to the manufacturer’s instructions, as described previously. Each experiment was performed in triplicate. The absorbance was measured at 570 nm using a Biotek Synergy microplate reader (BioTek Instruments Inc., Winooski, VT, USA). Cell viability was expressed as a percent of control (untreated cells). Doxorubicin was used as a reference drug.
# (§3) The selectivity index (SI) was calculated from the following formula:SI = IC50 of compound in a normal cell line/IC50 of compound in cancer cell line.IC50, half maximal inhibitory concentration, is a concentration required to kill 50% of the cells.
# Caco-2 = assay: MTT cell viability assay, Caco-2 colon cancer cells; type: cell-based; conditions: Homo sapiens
# Source text: as §1, §2
# Du-145 = assay: MTT cell viability assay, Du-145 prostate carcinoma cells; type: cell-based; conditions: Homo sapiens
# Source text: as §1, §2
# HTB-140 = assay: MTT cell viability assay, HTB-140 metastatic melanoma cells; type: cell-based, human; conditions: for IC50: Homo sapiens
# Source text: as §1, §2, §3
# HCT116 = assay: MTT cell viability assay, HCT116 colon cancer cells; type: cell-based; conditions: Homo sapiens, HCT-116
# Source text: as §1, §2
# LNCaP = assay: MTT cell viability assay, LNCaP prostate adenocarcinoma cells; type: cell-based; conditions: Homo sapiens
# Source text: as §1, §2
# Nthy-ori 3-1 = assay: MTT cell viability assay, Nthy-ori 3-1 normal thyroid epithelial cells; type: cell-based; conditions: Homo sapiens
# Source text: as §1, §2
# 8505C = assay: MTT cell viability assay, 8505C undifferentiated thyroid carcinoma cells; type: cell-based, human; conditions: for IC50: Homo sapiens, 8505C; for Selectivity Index (SI): IC50 Nthy-ori 3-1 / IC50 8505C
# Source text: as §1, §2, §3
# MCF10A = assay: MTT cell viability assay, MCF10A normal breast epithelial cells; type: cell-based; conditions: Homo sapiens, MCF-10A
# Source text: as §1, §2
# A375 = assay: MTT cell viability assay, A375 malignant melanoma cells; type: cell-based, human; conditions: for IC50: Homo sapiens, A-375
# Source text: as §1, §2, §3
# CCD 841 CoN = assay: MTT cell viability assay, CCD 841 CoN normal colon epithelial cells; type: cell-based; conditions: Homo sapiens
# Source text: as §1, §2
# HT29 = assay: MTT cell viability assay, HT29 colorectal adenocarcinoma cells; type: cell-based; conditions: Homo sapiens, HT-29
# Source text: as §1, §2
# PNT2 = assay: MTT cell viability assay, PNT2 normal prostate epithelial cells; type: cell-based; conditions: Homo sapiens
# Source text: as §1, §2
# MCF7 = assay: MTT cell viability assay, MCF7 breast adenocarcinoma cells; type: cell-based; conditions: Homo sapiens
# Source text: as §1, §2
# WM793 = assay: MTT cell viability assay, WM793 primary melanoma cells; type: cell-based, human; conditions: for IC50: Homo sapiens
# Source text: as §1, §2, §3
# HepG2 = assay: MTT cell viability assay, HepG2 hepatocellular carcinoma cells; type: cell-based; conditions: Homo sapiens
# Source text: as §1, §2
# PC3 = assay: MTT cell viability assay, PC3 prostate carcinoma cells; type: cell-based; conditions: Homo sapiens, PC-3
# Source text: as §1, §2
# TPC-1 = assay: MTT cell viability assay, TPC-1 papillary thyroid carcinoma cells; type: cell-based, human; conditions: for IC50: Homo sapiens, TPC1
# Source text: as §1, §2, §3
# MDA-MB-231 = assay: MTT cell viability assay, MDA-MB-231 breast adenocarcinoma cells; type: cell-based; conditions: Homo sapiens
# Source text: as §1, §2
# HaCaT = assay: MTT cell viability assay, HaCaT keratinocytes; type: cell-based; conditions: Homo sapiens
# Source text: as §1, §2
# DLD-1 = assay: MTT cell viability assay, DLD-1 colon cancer cells; type: cell-based; conditions: Homo sapiens
# Source text: as §1, §2
compound,measurement,setting,value
"CC1(C)CC[C@]2(C(=O)O)CC[C@]3(C)C(=CC[C@@H]4[C@@]5(C)CC[C@H](O)C(C)(C)[C@@H]5CC[C@]43C)[C@@H]2C1 [OA, oleanolic acid]",IC50,"FTC133; FTC133, 24 h",13.5 µg/mL
same,IC50,"FTC133; FTC133, 48 h",4.9 µg/mL
same,Selectivity Index (SI),"FTC133; IC50 Nthy-ori 3-1 / IC50 FTC133, 24 h",6.99
same,Selectivity Index (SI),"FTC133; IC50 Nthy-ori 3-1 / IC50 FTC133, 48 h",14.6
same,IC50,"Caco-2; Caco-2, 24 h",13 µg/mL
same,IC50,"Caco-2; Caco-2, 48 h",8.3 µg/mL
same,IC50,"Du-145; DU-145, 24 h",23.4 µg/mL
same,IC50,"Du-145; DU-145, 48 h",12.2 µg/mL
same,IC50,"HTB-140; HTB-140, 24 h",51.4 µg/mL
same,IC50,"HTB-140; HTB-140, 48 h",29.5 µg/mL
same,Selectivity Index (SI),"HTB-140; IC50 HaCaT / IC50 HTB-140, 24 h",0.2
same,Selectivity Index (SI),"HTB-140; IC50 HaCaT / IC50 HTB-140, 48 h",0.2
same,IC50,"HCT116; HCT116, 24 h",25.6 µg/mL
same,IC50,"HCT116; HCT116, 48 h",18.5 µg/mL
same,IC50,LNCaP; 24 h,> 100 µg/mL
same,IC50,LNCaP; 48 h,> 100 µg/mL
same,IC50,Nthy-ori 3-1; 24 h,94.4 µg/mL
same,IC50,Nthy-ori 3-1; 48 h,71.6 µg/mL
same,IC50,8505C; 24 h,19.5 µg/mL
same,IC50,8505C; 48 h,11.3 µg/mL
same,Selectivity Index (SI),8505C; 24 h,4.8
same,Selectivity Index (SI),8505C; 48 h,6.4
same,IC50,MCF10A; 24 h,> 100 µg/mL
same,IC50,MCF10A; 48 h,> 100 µg/mL
same,IC50,"A375; A375, 24 h",2.2 µg/mL
same,IC50,"A375; A375, 48 h",0.9 µg/mL
same,Selectivity Index (SI),"A375; IC50 HaCaT / IC50 A375, 24 h",5.2
same,IC50,CCD 841 CoN; 24 h,> 100 µg/mL
same,IC50,CCD 841 CoN; 48 h,> 100 µg/mL
same,IC50,"HT29; HT29, 24 h",> 100 µg/mL
same,IC50,"HT29; HT29, 48 h",> 100 µg/mL
same,IC50,PNT2; 24 h,> 100 µg/mL
same,IC50,PNT2; 48 h,> 100 µg/mL
same,IC50,"MCF7; MCF7, 24 h",> 100 µg/mL
same,IC50,"MCF7; MCF7, 48 h",67 µg/mL
same,IC50,"WM793; WM793, 24 h",2.8 µg/mL
same,IC50,"WM793; WM793, 48 h",1.2 µg/mL
same,Selectivity Index (SI),"WM793; IC50 HaCaT / IC50 WM793, 24 h",4.0
same,Selectivity Index (SI),"WM793; IC50 HaCaT / IC50 WM793, 48 h",6.0
same,IC50,"HepG2; HepG2, 24 h",51.5 µg/mL
same,IC50,"HepG2; HepG2, 48 h",10.7 µg/mL
same,IC50,"PC3; PC3, 24 h",> 100 µg/mL
same,IC50,"PC3; PC3, 48 h",> 100 µg/mL
same,IC50,"TPC-1; TPC-1, 24 h",36.6 µg/mL
same,IC50,"TPC-1; TPC-1, 48 h",30 µg/mL
same,Selectivity Index (SI),"TPC-1; IC50 Nthy-ori 3-1 / IC50 TPC-1, 24 h",2.6
same,Selectivity Index (SI),"TPC-1; IC50 Nthy-ori 3-1 / IC50 TPC-1, 48 h",2.4
same,IC50,"MDA-MB-231; MDA-MB-231, 24 h",> 100 µg/mL
same,IC50,"MDA-MB-231; MDA-MB-231, 48 h",38.5 µg/mL
same,IC50,HaCaT; 24 h,11.2 µg/mL
same,IC50,HaCaT; 48 h,7.5 µg/mL
same,IC50,"DLD-1; DLD-1, 24 h",48.7 µg/mL
same,IC50,"DLD-1; DLD-1, 48 h",24.5 µg/mL
